Reference: publication PMC10111022, “Comparison of pharmacological inhibitors of lysine-specific demethylase 1 in glioblastoma stem cells reveals inhibitor-specific efficacy profiles” (Frontiers in Neurology, 2023)

How the values were obtained:
MDA-GSC 17 = assay: Cell viability dose response (IC50), MDA-GSC 17; assay type: cell-based; details: Homo sapiens, mean of three independent experiments
Procedure: (§1) MDA-GSCs were plated at 50,000 cells/well into 12-well plates at and allowed to grow for 5 days until neurospheres were formed. The cells were then treated with either TCP, GSK-LSD1, or RN-1 at various concentrations for 5 days. Next, the cells were collected and neurospheres were dissociated with Accutase (BioLegend; San Diego, CA). Cell viability was determined using a trypan dye exclusion assay and read with the Vi-Cell XR Cell Viability Analyzer (Beckman Coulter; Brea, CA). NHAs were plated at 50,000 cells/well into 12-well plates and allowed to adhere overnight. The following day, NHAs were treated with the LSD1 inhibitors. After 5 days, the cells were detached using TrypLE and assessed with the trypan blue dye exclusion assay.
(§2) The alamarBlue cell viability (Bio-Rad; Hercules, CA) was performed on the MDA-GSCs according to the manufacturer’s protocol. The cells were plated at 5,000 cell/well into a 96-well plate and allowed to grow for 5 days. After 5 days, the alamarBlue reagent was added and fluorescence was measured with the Synergy 2 (BioTek Instruments; Winooski, VT) plate reader according to the manufacturer’s protocol.

MDA-GSC 8–11 = assay: Cell viability dose response (IC50), MDA-GSC 8–11; assay type: cell-based; details: Homo sapiens, mean of three independent experiments
Procedure: as §1, §2

MDA-GSC lines = assay: Cell viability across the panel of nine MDA-GSC lines; assay type: cell-based, Human; details: for concentrations at which MDA-GSC viability was reduced: many/several MDA-GSC lines, dose response curves Figure 2
Procedure: as §1, §2

MDA-GSC 262 = assay: Cell viability dose response (IC50), MDA-GSC 262; assay type: cell-based; details: Homo sapiens, mean of three independent experiments
Procedure: as §1, §2

MDA-GSC 7–2 = assay: Cell viability dose response (IC50), MDA-GSC 7–2; assay type: cell-based; details: Homo sapiens, mean of three independent experiments
Procedure: as §1, §2

MDA-GSC 20 = assay: Cell viability dose response (IC50), MDA-GSC 20; assay type: cell-based; details: Homo sapiens, mean of three independent experiments
Procedure: as §1, §2

MDA-GSC 6–27 = assay: Cell viability dose response (IC50), MDA-GSC 6–27; assay type: cell-based; details: Homo sapiens, mean of three independent experiments
Procedure: as §1, §2

NHA = assay: Cell viability dose response (IC50), normal human astrocytes; assay type: cell-based; details: for IC50: Homo sapiens, Astrocyte, mean of three independent experiments; for effect on NHA viability: NHA treated at the maximum concentration tested for each compound
Procedure: as §1, §2

[1] = parameters: method as in PMID 34786883, PMID 33052756; details: safety studies; cited from earlier work
MDA-GSC 7–11 = assay: Cell viability dose response (IC50), MDA-GSC 7–11; assay type: cell-based; details: Homo sapiens, mean of three independent experiments
Procedure: as §1, §2

MDA-GSC 311 = assay: Cell viability dose response (IC50), MDA-GSC 311; assay type: cell-based; details: Homo sapiens, mean of three independent experiments
Procedure: as §1, §2

MDA-GSC 23 = assay: Cell viability dose response (IC50), MDA-GSC 23; assay type: cell-based; details: Homo sapiens, mean of three independent experiments
Procedure: as §1, §2

[2] = parameters: method as in personal communications, Salarius Pharmaceuticals; details: ref personal communications, Salarius Pharmaceuticals; cited from earlier work
MDA-GSC7-2 = assay: qPCR of resistance-related genes, MDA-GSC7-2; assay type: cell-based, Human; details: MDA-GSC7-2 (sensitive)
Procedure: (§3) Total RNA was extracted using RNeasy Plus Mini Kit (Qiagen; Hilden, Germany) following the manufacturer’s protocol. cDNA was synthesized with the iScript cDNA synthesis kit (Bio-Rad; Hercules, CA), qPCR was performed using Forget-Me-Not EvaGreen qPCR kit (Biotium; Fremont, CA), and samples were analyzed with the LightCycler96 (Roche; Basel, Switzerland). Cq values were normalized to PPIA and reported as relative fold change from untreated control.

MDA-GSC17 = assay: qPCR of resistance-related genes, MDA-GSC17; assay type: cell-based, Human; details: MDA-GSC17 (sensitive)
Procedure: as §3

MDA-GSC8-11 = assay: qPCR of resistance-related genes, MDA-GSC8-11; assay type: cell-based, Human; details: MDA-GSC8-11 (resistant)
Procedure: as §3

MDA-GSC20 = assay: qPCR of resistance-related genes, MDA-GSC20; assay type: cell-based, Human; details: MDA-GSC20 (resistant)
Procedure: as §3

SMILES | IC50 (MDA-GSC 17) [µM] | IC50 (MDA-GSC 8–11) [µM] | concentrations at which MDA-GSC viability was reduced (MDA-GSC lines) | IC50 (MDA-GSC 262) [µM] | IC50 (MDA-GSC 7–2) [µM] | IC50 (MDA-GSC 20) [µM] | IC50 (MDA-GSC 6–27) [µM] | IC50 (NHA; NHA) [µM] | neurotoxic effects in human trials [1] | IC50 (MDA-GSC 7–11) [µM] | IC50 (MDA-GSC 311) [µM] | IC50 (MDA-GSC 23) [µM] | effect on NHA viability (NHA) | further results
N[C@H]1CC[C@H](N[C@@H]2C[C@H]2c2ccccc2)CC1 [ORY-1001] | 107 | 64.5 | 50 to 90 µM | 92.7 | 87.7 | 54.8 | 72.8 | 96.3 | have not revealed any neurotoxic effects | 64.7 | > 150 | 97.8 | – | –
C/C(=N\NC(=O)c1cccc(S(=O)(=O)N2CCN(C)CC2)c1)c1cc(Cl)ccc1O [SP-2577] | 15.7 | 12.4 | less than 10 μM | 8.8 | 9.7 | > 25 | 6.8 | 2.3 | – | 5.6 | 23.6 | 16.8 | – | activity in noncancerous cells, NHA (NHA; NHA, Figure 2J): strong activity; crossing of the blood brain barrier [2]: has not been found to cross the blood brain barrier
CN1CCN(C(=O)[C@H](CCCN[C@@H]2C[C@H]2c2ccc(F)cc2)NC(=O)c2ccc(-n3ccnn3)cc2)CC1 [IMG-7289] | 87.4 | 56.1 | < 50 µM | 41.2 | 32.1 | 66.9 | 39.9 | 38.2 | have not revealed any neurotoxic effects | 23.6 | > 125 | 34.2 | – | –
Nc1nnc(CN[C@@H]2C[C@H]2c2ccc(OCc3ccccc3)cc2)o1 [ORY-2001] | > 50 | > 50 | – | > 50 | > 50 | > 50 | > 50 | > 50 | – | 42.1 | 45.6 | 48.1 | – | IC50 (MDA-GSC lines; Homo sapiens, majority of MDA-GSCs, maximum dose 50 μM): > 50 µM
CN1CCN(C(=O)CN[C@H]2C[C@@H]2c2ccc(OCc3ccccc3)cc2)CC1 [RN-1] | 22.5 | > 50 | 20 to 50 µM | > 50 | > 50 | 39.8 | 23.8 | > 50 | – | > 50 | > 50 | > 50 | minimal effect | –
NC1CC1c1ccccc1 (stereo not shown) [TCP, tranylcypromine] | 2200 | > 5000 | – | 4100 | 2700 | 4700 | > 5000 | > 5000 | – | > 5000 | 3500 | 2700 | minimal effect | expression of resistance-related genes (FTH1, RAB39B, HKDC1, FAM213A) (MDA-GSC7-2): only minimal effects; expression of resistance-related genes (MDA-GSC17): did not significantly increase; effects on cell viability (MDA-GSC lines; MDA-GSC lines, Figure 2C): not seen until mM concentrations; expression of resistance-related genes (MDA-GSC8-11): increase in two of the resistance related genes; expression of resistance-related genes (FTH1, RAB39B, HKDC1, FAM213A) (MDA-GSC20): consistently increased
